Results on ten molecules are retold here after ChEMBL document CHEMBL1201862, “PubChem BioAssay data set” (2004).

Among the test systems are A549; NCI-H226; OVCAR-5; SK-MEL-28; SF-539; U-251; Malme-3M; SN12C; ACHN; RPMI-8226; DLD-1; SK-MEL-2; SF-268; UACC-257; MOLT-4; OVCAR-8; M14; HOP-92; COLO 205; KM12.
Common to all, as to test: inhibition of tumour cell growth, NCI panel, 48 h

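A five-concentration, 48-hour dose response in 96-well plates underlies each endpoint, interpolated linearly between surrounding concentrations. Here, GI50 denotes the concentration required for 50% inhibition of growth.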 Active and inactive are the calls of the source. Rule as the data show it: active = GI50 up to about 1.1 µM and inactive = higher.

As to `Cn1nc(-c2ccccc2)c2c(/C=C/c3ccccc3)onc2c1=O`, the GI50 with A549 is > 100 µM (inactive); with NCI-H226, > 100 µM (inactive); in the test with OVCAR-5 it was > 100 µM (inactive); with SK-MEL-28 it was > 100 µM (inactive); in the test on SF-539, 65.8 µM (inactive); in the test with U-251, 64 µM (inactive). In addition, the GI50 was 71.4 µM (inactive) in the test on Malme-3M; > 100 µM (inactive) with SN12C; > 100 µM (inactive) in the test with ACHN; > 100 µM (inactive) in the test on RPMI-8226; 78.9 µM (inactive) in the test on DLD-1; > 100 µM (inactive) in the test on SK-MEL-2. For the same molecule, the GI50 is 43.9 µM (inactive) in the test with SF-268; > 100 µM (inactive) in the test on UACC-257; > 100 µM (inactive) in the test on MOLT-4; 33.7 µM (inactive) in the test on OVCAR-8; > 100 µM (inactive) in the test on M14; 33 µM (inactive) with HOP-92. The GI50 with COLO 205 and in the test on KM12 was > 100 µM (inactive) each time.

For `O=C(O)CN(CC(=O)O)Cc1cc(C#Cc2ccc(C#Cc3ccccc3)cc2)cc(CN(CC(=O)O)CC(=O)O)n1`, the GI50 in the test on A549 is 29.1 µM (inactive); in the test with NCI-H226, 12.2 µM (inactive); in the test with OVCAR-5 it was 26.4 µM (inactive); in the test on SK-MEL-28, > 52 µM (inactive); in the test on SF-539 it was 20.7 µM (inactive); in the test with U-251 it was 5.11 µM (inactive). Also, the GI50 in the test with Malme-3M was 31 µM (inactive); in the test with SN12C, 19.7 µM (inactive); in the test on ACHN, 32 µM (inactive); in the test with RPMI-8226, 17.1 µM (inactive); in the test on DLD-1, 8.53 µM (inactive); in the test with SK-MEL-2, 29.2 µM (inactive). Besides, the GI50 in the test with SF-268 is 12.2 µM (inactive); in the test on UACC-257, 40.8 µM (inactive); in the test on MOLT-4, 8.91 µM (inactive); in the test with OVCAR-8 it was 11.5 µM (inactive); with M14, 22.9 µM (inactive); in the test on HOP-92 it was 22.9 µM (inactive). Besides, the results for the GI50 with COLO 205 and with KM12 were 11.5 µM (inactive) and 16.8 µM (inactive), respectively.

Turning to `CN(C)C(=S)/N=c1\ssc(=S)n1Cc1cccs1`, the GI50 in the test with A549 is 5.27 µM (inactive); in the test with NCI-H226, 13.7 µM (inactive); in the test with OVCAR-5, > 55.3 µM (inactive); in the test with SK-MEL-28 it was 8.41 µM (inactive); with SF-539 it was 2.55 µM (inactive); with U-251, 3.76 µM (inactive). The GI50 in the test on Malme-3M is 2.4 µM (inactive); in the test with SN12C it was 6.9 µM (inactive); in the test on ACHN it was 9.35 µM (inactive); with RPMI-8226 it was 5.81 µM (inactive); in the test with DLD-1 it was 3.82 µM (inactive); with SK-MEL-2, 2.88 µM (inactive). Besides, the GI50 is 5.45 µM (inactive) with SF-268; 6.76 µM (inactive) in the test on UACC-257; 17.5 µM (inactive) in the test with MOLT-4; 4.99 µM (inactive) in the test on OVCAR-8; 3.01 µM (inactive) in the test on M14; 5.26 µM (inactive) with HOP-92. The GI50 was 2.36 µM (inactive) with COLO 205 and 3.39 µM (inactive) in the test with KM12.

As for `CC(=O)Nc1ccc(/C=C/C(=O)c2sc(-n3nc(-c4ccccc4)cc3-c3ccccc3)nc2C)cc1`, the GI50 in the test with A549, in the test with NCI-H226, in the test on OVCAR-5, with SK-MEL-28, with SF-539 and with U-251 was > 10 µM (inactive) each time. For the same molecule, the GI50 with Malme-3M, in the test with SN12C, in the test on ACHN, in the test with RPMI-8226, with DLD-1 and in the test with SK-MEL-2 was > 10 µM (inactive) in each case. Besides, the GI50 is > 10 µM (inactive) in the test with SF-268; 80.9 µM (inactive) in the test with UACC-257; > 10 µM (inactive) in the test with MOLT-4; > 10 µM (inactive) with OVCAR-8; > 10 µM (inactive) in the test with M14; > 10 µM (inactive) in the test with HOP-92. Moreover, the GI50 with COLO 205 was > 10 µM (inactive); with KM12, 64.9 µM (inactive).

With `NCC(=O)OCN1C(=O)C2C3C=CC(C2C1=O)C1C2C(=O)N(COC(=O)CN)C(=O)C2C31` (centres undefined), the GI50 in the test with A549 is 30.1 µM (inactive); with NCI-H226, 50.5 µM (inactive); with SK-MEL-28, 19.1 µM (inactive); with SF-539, 30.2 µM (inactive); with U-251, 22 µM (inactive); in the test on SN12C, 23.3 µM (inactive). The GI50 in the test with ACHN was 24.5 µM (inactive); in the test with RPMI-8226, 32.1 µM (inactive); with DLD-1 it was 24.3 µM (inactive); in the test on SK-MEL-2, 19.4 µM (inactive); with SF-268, 20.9 µM (inactive); in the test on UACC-257, 36.3 µM (inactive). Further, the GI50 is 28.9 µM (inactive) with MOLT-4; 20.7 µM (inactive) with OVCAR-8; 20.5 µM (inactive) in the test with M14; 94 µM (inactive) in the test on HOP-92; 21.4 µM (inactive) in the test with COLO 205; 22.2 µM (inactive) in the test with KM12.

Consider `Cc1ccc(NC(=O)CC(=O)N2N=C(N(CCC#N)c3cccc(C)c3)CC2c2ccccc2)cc1` (centres undefined), for which the GI50 in the test with A549, in the test with NCI-H226, in the test with OVCAR-5, in the test with SK-MEL-28, in the test with SF-539 and in the test on U-251 was > 100 µM (inactive) in each case. The GI50 in the test on Malme-3M, in the test on SN12C, in the test with ACHN, with RPMI-8226, in the test on DLD-1 and with SK-MEL-2 was > 100 µM (inactive) throughout. The GI50 with SF-268, in the test on UACC-257, in the test with MOLT-4, with OVCAR-8, with M14 and with HOP-92 was > 100 µM (inactive) in each case. For the same molecule, the GI50 in the test on COLO 205 and in the test with KM12 was > 100 µM (inactive) each time.

Take `CCOC(=O)N[C@@H]1C2CC(=O)C(O2)[C@@H]1OC` (some centres undefined): the GI50 in the test with A549 was > 100 µM (inactive); with NCI-H226 it was > 100 µM (inactive); with OVCAR-5, > 100 µM (inactive); with SK-MEL-28 it was 7.08 µM (inactive); with SF-539, > 100 µM (inactive); in the test on U-251, > 100 µM (inactive). Also, the GI50 in the test with Malme-3M, with SN12C, with ACHN, in the test with RPMI-8226, with DLD-1 and with SK-MEL-2 was > 100 µM (inactive) in each case. Further, the GI50 in the test on SF-268, in the test with UACC-257, in the test on MOLT-4, in the test with OVCAR-8, in the test with M14 and in the test on HOP-92 was > 100 µM (inactive) each time. The GI50 in the test on COLO 205 and in the test on KM12 was > 100 µM (inactive) in each case.

Consider `CCNC(=O)COc1ccc(Br)cc1Br`, for which the GI50 with A549, in the test with NCI-H226, in the test with OVCAR-5, in the test on SK-MEL-28, in the test on SF-539 and in the test on U-251 was > 100 µM (inactive) in each case. The GI50 in the test on Malme-3M was > 100 µM (inactive); with SN12C it was > 100 µM (inactive); in the test on ACHN it was > 100 µM (inactive); in the test on RPMI-8226, > 100 µM (inactive); in the test on DLD-1, > 100 µM (inactive); with SK-MEL-2, 42.9 µM (inactive). Moreover, the GI50 in the test with SF-268 is > 100 µM (inactive); in the test on UACC-257, > 100 µM (inactive); in the test on MOLT-4 it was > 100 µM (inactive); with M14 it was > 100 µM (inactive); in the test with HOP-92, 29 µM (inactive); in the test on COLO 205, > 100 µM (inactive). Also, in the test on KM12, the GI50 is > 100 µM (inactive).

For `COc1cc(/C=C\c2ccc(SC)cc2)cc(OC)c1OC`, the GI50 with A549 is 0.0215 µM (active); in the test on NCI-H226, 0.979 µM (active); in the test with OVCAR-5, 1.15 µM (inactive); in the test with SF-539, < 0.0145 µM (active); in the test on U-251, 0.0845 µM (active); with Malme-3M, 0.381 µM (active). The GI50 in the test with SN12C was 0.0667 µM (active); in the test on ACHN it was 0.467 µM (active); with RPMI-8226, 0.0331 µM (active); in the test with DLD-1, 0.0409 µM (active); in the test with SK-MEL-2 it was 0.0188 µM (active); in the test on SF-268, 0.0406 µM (active). In addition, the GI50 with MOLT-4 is 0.0281 µM (active); in the test on OVCAR-8, 0.0231 µM (active); with M14, 0.0182 µM (active); in the test on HOP-92 it was 0.498 µM (active); in the test with COLO 205, 0.0271 µM (active); in the test on KM12, 0.0241 µM (active).

With `COc1nc(NC2OCC(O)C(O)C2O)c(NC2OCC(O)C(O)C2O)c(=O)n1C` (centres undefined), the GI50 in the test with A549 is > 100 µM (inactive); with NCI-H226 it was 89.7 µM (inactive); with SK-MEL-28 it was > 100 µM (inactive); with SF-539, > 100 µM (inactive); in the test on U-251 it was > 100 µM (inactive); in the test on Malme-3M, > 100 µM (inactive). Further, the GI50 in the test with SN12C, with ACHN, with RPMI-8226, in the test with DLD-1, in the test on SK-MEL-2 and in the test on SF-268 was > 100 µM (inactive) each time. Also, the GI50 with UACC-257, in the test on MOLT-4, in the test with OVCAR-8, in the test on M14, with HOP-92 and with COLO 205 was > 100 µM (inactive) each time. Moreover, in the test on KM12, the GI50 was > 100 µM (inactive).
